What was measured:
Assay type in all cases: biochemical
human CYP4F2 = human CYP4F2 (Homo sapiens (Human), UniProt P78329); experiment: Inhibition test against 20-HETE producing enzyme CYP4F2 (luciferine derivative, luminescence)
Procedure, shortened: (§1)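 IC50 derived from luminescence after 60 min at room temperature with membrane fractions of E. coli expressing each human CYP (100 μg/mL protein). For CYP4A11, 60 μM luciferin derivative in 100 mM Tris-HCl pH 7.5 with NADPH-regenerating system; for CYP4F2, 2.5 μM substrate, 1 mM NADPH, 50 mM KPO4 pH 7.4.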

human CYP4A11 = human CYP4A11 (Homo sapiens (Human), UniProt Q02928); experiment: Inhibition test against 20-HETE producing enzyme CYP4A11 (luciferine derivative, luminescence)
Procedure, shortened: as §1

[1] = system: 20-HETE producing enzymes, human kidney microsome; experiment: Inhibition test against 20-HETE producing enzymes using human kidney microsomes (LC-MS/MS); conditions: for inhibitory activities against 20-HETE producing enzymes compared to compound A and compound B: comparison with compound A and compound B of WO03/022821, human kidney microsomes; for IC50: human kidney microsome 250 μg/mL protein, 20 μM arachidonic acid, 37° C. 45 minutes, LC-MS/MS
Description: (1) Inhibition Test for Each Compound of the Present Invention Against 20-HETE Producing Enzymes Using Human Kidney Microsomes
The reaction solution containing each compound [final concentration of 100 mM, KPO4 (pH 7.4), 20 μM Arachidonic acid, 4 mM NADPH] was added to the human kidney microsome (250 μg/mL protein). Following this, the microsome was left to stand at 37° C. for 45 minutes to perform 20-HETE producing reaction. After adding formic acid to stop the reaction, 9 times amount of acetonitrile was added, and deproteinization was carried out by centrifugation (1000 rpm, 4° C., 10 minutes). After that, the peak area value of 20-HETE was measured using a liquid chromatograph-tandem mass spectrometer (LC-MS/MS), and by using that value, the percent inhibition of 20-HETE producing enzyme (%) was calculated according to the equation described below, and the 50% inhibitory concentration (IC50 value) for each compound was calculated. Percent inhibition of 20-HETE producing enzyme (%)=[1−(A−B)/(C−B)]*100
A: Peak area value of 20-HETE/peak area value of internal standard substance with addition of compound
B: Peak area value of 20-HETE/peak area value of internal standard substance without addition of compound and NADPH
C: Peak area value of 20-HETE/peak area value of internal standard substance without addition of compound
(3) Inhibition Test for Compound a and Compound B Disclosed in WO03/022821 Against 20-HETE Producing Enzymes Using Human Kidney Microsomes
For compound A and compound B disclosed in WO03/022821, which have been described above, the 50% inhibitory concentration (IC50 value) against 20-HETE producing enzymes was calculated according to the method described in Test Example 2.
On the other hand, as described above, in Test Example 2, nonradioactive arachidonic acid was used as a substrate for 20-HETE producing reaction, and the amount of 20-HETE produced was measured using LC-MS/MS. In this case, the concentration of arachidonic acid, the substrate, is 20 μM.
In recent years, it is recommended that the substrate concentration for calculating the IC50 value be set at the Km value (Assay Guidance Manual, Sittampalam et. al. (URL: http://www.ncbi.nlm.nih.gov/books/NBK53196/)). According to this, in Test Example 2 described above, human kidney microsomes were used to calculate the Km value, and the calculated Km value of 20 μM was set as the concentration of the substrate, arachidonic acid.

human CYP4F22 = human CYP4F22 (Homo sapiens (Human), UniProt Q6NT55); experiment: CYP4F22 selectivity test; conditions: cell membrane fraction expressing human CYP4F22, 14 μM luciferine derivative, 50 minutes
Description: (1) CYP4F22 Selectivity Test for Each Compound of the Present Invention
(§2) The reaction solution containing each compound [final concentration of 100 mM KPO4 (pH 7.4), 14 μM luciferine derivative, and 1 mM NADPH] was added to a cell membrane fraction (30 μg/mL protein) in which human CYP4F22 had been expressed. Following this, the cell membrane fraction was left to stand at room temperature for 50 minutes to perform an enzymatic reaction. After the reaction, a luciferine detection reagent was added, and the luminescence value was measured using a plate reader. By using that value, the percent inhibition of the enzymatic reaction of CYP4F22(%) was calculated according to the equation described below, and the 50% inhibitory concentration (IC50 value) for each compound was calculated. Percent inhibition of CYP4F22 enzyme (%)=[1−(A−B)/(C−B)]*100
(§3) A: Luminescence value with addition of compound
(§4) B: Luminescence value without addition of compound and enzyme
(§5) C: Luminescence value without addition of compound

human CYP4V2 = human CYP4V2 (Homo sapiens (Human), UniProt Q6ZWL3); experiment: CYP4V2 selectivity test; conditions: cell membrane fraction expressing human CYP4V2, 7 μM luciferine derivative, 40 minutes
Description: (3) CYP4V2 Selectivity Test for Each Compound of the Present Invention
as §2, with “7.4), 7” for “7.4), 14”, “fraction (38” for “fraction (30”, “human CYP4V2” for “human CYP4F22”, “for 40” for “for 50”, “of CYP4V2(%)” for “of CYP4F22(%)”, “of CYP4V2” for “of CYP4F22”
as §3, §4, §5

[2] = E. coli membrane fraction expressing human CYP4F2, 2.5 μM luciferine derivative, room temperature 60 minutes
[3] = E. coli membrane fraction expressing human CYP4A11, 60 μM luciferine derivative, room temperature 60 minutes
[4] = human CYP4F2, luciferine derivative, luminescence
[5] = human CYP4A11, luciferine derivative, luminescence

Sequence of human CYP4F2 (P78329 5-520): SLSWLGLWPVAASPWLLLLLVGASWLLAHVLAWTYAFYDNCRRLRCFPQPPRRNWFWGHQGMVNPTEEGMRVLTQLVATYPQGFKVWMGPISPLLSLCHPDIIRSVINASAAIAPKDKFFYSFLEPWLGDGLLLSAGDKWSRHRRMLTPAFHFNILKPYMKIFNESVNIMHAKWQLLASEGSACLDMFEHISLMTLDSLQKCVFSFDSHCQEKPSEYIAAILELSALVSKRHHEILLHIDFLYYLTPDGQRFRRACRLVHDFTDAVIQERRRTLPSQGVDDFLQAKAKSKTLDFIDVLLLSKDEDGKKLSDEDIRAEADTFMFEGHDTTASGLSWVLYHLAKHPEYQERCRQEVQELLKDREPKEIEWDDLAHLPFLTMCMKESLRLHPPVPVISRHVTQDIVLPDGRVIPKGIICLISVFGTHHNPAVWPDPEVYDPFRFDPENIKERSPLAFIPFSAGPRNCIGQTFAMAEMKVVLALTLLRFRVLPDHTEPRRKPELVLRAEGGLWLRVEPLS
Sequence of human CYP4V2 (Q6ZWL3 whole entry): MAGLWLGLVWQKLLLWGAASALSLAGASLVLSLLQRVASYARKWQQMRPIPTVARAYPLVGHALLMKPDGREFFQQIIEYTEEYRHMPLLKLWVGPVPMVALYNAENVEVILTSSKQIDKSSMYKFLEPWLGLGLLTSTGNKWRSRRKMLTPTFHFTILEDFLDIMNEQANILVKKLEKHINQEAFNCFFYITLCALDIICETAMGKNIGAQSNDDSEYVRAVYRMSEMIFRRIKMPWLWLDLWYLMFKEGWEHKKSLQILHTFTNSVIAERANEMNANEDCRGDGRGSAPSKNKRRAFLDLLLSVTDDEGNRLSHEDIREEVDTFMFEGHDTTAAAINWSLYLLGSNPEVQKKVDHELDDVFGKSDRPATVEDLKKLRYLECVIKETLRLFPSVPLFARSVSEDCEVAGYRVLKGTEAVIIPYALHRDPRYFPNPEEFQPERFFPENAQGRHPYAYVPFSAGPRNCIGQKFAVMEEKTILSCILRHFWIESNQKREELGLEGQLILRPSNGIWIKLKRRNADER
Sequence of human CYP4A11 (Q02928 5-519): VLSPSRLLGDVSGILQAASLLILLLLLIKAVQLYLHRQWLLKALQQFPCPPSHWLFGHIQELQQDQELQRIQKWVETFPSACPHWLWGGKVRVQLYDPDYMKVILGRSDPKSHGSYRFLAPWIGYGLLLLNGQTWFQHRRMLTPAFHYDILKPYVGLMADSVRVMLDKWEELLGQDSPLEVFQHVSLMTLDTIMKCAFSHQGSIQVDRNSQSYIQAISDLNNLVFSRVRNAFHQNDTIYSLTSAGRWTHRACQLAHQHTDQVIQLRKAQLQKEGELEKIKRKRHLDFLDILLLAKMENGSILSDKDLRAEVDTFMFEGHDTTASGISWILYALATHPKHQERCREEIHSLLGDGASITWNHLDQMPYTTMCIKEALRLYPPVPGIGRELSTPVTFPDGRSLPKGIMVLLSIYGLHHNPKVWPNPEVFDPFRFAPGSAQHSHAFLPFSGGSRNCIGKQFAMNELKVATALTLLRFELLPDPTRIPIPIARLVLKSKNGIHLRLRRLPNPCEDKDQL
Sequence of human CYP4F22 (Q6NT55 whole entry): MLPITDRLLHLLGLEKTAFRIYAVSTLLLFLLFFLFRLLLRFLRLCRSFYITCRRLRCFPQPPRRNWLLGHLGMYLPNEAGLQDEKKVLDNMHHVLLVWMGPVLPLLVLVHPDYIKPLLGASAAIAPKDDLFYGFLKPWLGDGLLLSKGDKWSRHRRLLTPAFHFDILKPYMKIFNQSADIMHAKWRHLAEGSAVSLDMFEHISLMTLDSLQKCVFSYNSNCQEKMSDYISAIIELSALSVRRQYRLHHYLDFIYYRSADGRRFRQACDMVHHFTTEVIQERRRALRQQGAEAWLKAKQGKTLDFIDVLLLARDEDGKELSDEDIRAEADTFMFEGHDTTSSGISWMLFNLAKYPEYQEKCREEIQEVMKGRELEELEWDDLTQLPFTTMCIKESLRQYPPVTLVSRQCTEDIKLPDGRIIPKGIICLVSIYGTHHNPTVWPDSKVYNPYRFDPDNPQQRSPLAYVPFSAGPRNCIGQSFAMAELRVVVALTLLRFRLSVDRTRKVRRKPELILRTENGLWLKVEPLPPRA

SMILES	IC50 (human CYP4F2; [2])	IC50 (human CYP4A11; [3])	inhibitory activities against 20-HETE producing enzymes compared to compound A and compound B [1]	IC50 [1]	IC50 (human CYP4F2; [4])	IC50 (human CYP4A11; [5])	IC50 (human CYP4F22)	IC50 (human CYP4V2)
O=C(O)C1CC1c1cccc(COc2ccc(-c3ccn[nH]3)nc2)c1 (single isomer, unassigned) [Example 26-3, trans-2-[3-[[6-(1H-Pyrazol-5-yl)-3-pyridinyl]oxymethyl]phenyl]-1-cyclopropanecarboxylic Acid (Optically Active Substance, Enantiomer of Compound of Example 26-2)]	1.5 µM	0.024 µM	stronger inhibitory activities	0.03 µM				
O=C(O)c1ccc2c(c1)CC(COc1ccc(-c3ccn[nH]3)nc1)CC2 (stereo not drawn) [Example 5-1, 7-[[6-(1H-Pyrazol-5-yl)-3-pyridinyl]oxymethyl]-5,6,7,8-tetrahydronaphthalene-2-carboxylic Acid]	0.033 µM	0.022 µM	stronger inhibitory activities	0.0082 µM				
O=C(O)C1CCc2ccc(COc3ccc(-c4ccn[nH]4)nc3)cc2C1 (stereo not drawn) [Example 1-56]	0.17 µM	0.027 µM	stronger inhibitory activities	0.02 µM				
O=C(O)C1CCCN(S(=O)(=O)c2cccc(COc3ccc(-c4ccn[nH]4)nc3)c2)C1 (stereo not drawn) [Example 22-9]	0.18 µM	0.045 µM	stronger inhibitory activities	0.015 µM				
CC(C)(COc1cc(COc2ccc(-c3ccn[nH]3)nc2)ccn1)C(=O)O [Example 22-14]	0.38 µM	0.07 µM	stronger inhibitory activities	0.032 µM				
CC(C)(COCCCCCCOc1ccc(-c2ccn[nH]2)nc1)C(=O)O [Example 1-57, 2,2-Dimethyl-3-[6-[[6-(1H-pyrazol-5-yl)-3-pyridinyl]oxy]hexoxy]propanoic Acid]	0.34 µM	0.11 µM	stronger inhibitory activities	0.019 µM				
O=C(O)C1(OCCCCCCCOc2ccc(-c3ccn[nH]3)nc2)COC1 [Example 71-6]				0.011 µM	0.1 µM	0.23 µM	0.37 µM	1.2 µM
O=C(O)C1(OCCCCCCCCOc2ccc(-c3ccn[nH]3)nc2)CCOCC1 [Example 68-1, 4-[8-[[6-(1H-Pyrazol-5-yl)-3-pyridinyl]oxy]octoxy]-4-oxanecarboxylic Acid]	0.039 µM	0.62 µM	stronger inhibitory activities	0.0069 µM				
CC(=O)N1CCN(CCOc2ccc(-c3ccn[nH]3)cc2)CC1 [Compound A, reference compound]	1 µM	11 µM		0.408 µM				
O=C(O)C1(F)CCN(S(=O)(=O)c2cccc(COc3ccc(-c4ccn[nH]4)nc3)c2)C1 (stereo not drawn) [Example 22-11]	0.7 µM	0.028 µM	stronger inhibitory activities	0.015 µM				
O=C(O)C1CC1c1ccc(CCOc2ccc(-c3ccn[nH]3)nc2)c(F)c1 (single isomer, unassigned) [Example 71-18]				0.006 µM	0.083 µM	0.11 µM	1.9 µM	2.1 µM
O=C(O)C1CC1c1cccc(COc2ccc(-c3ccn[nH]3)nc2)c1 (single isomer, unassigned) [Example 26-2, trans-2-[3-[[6-(1H-Pyrazol-5-yl)-3-pyridinyl]oxymethyl]phenyl]-1-cyclopropanecarboxylic Acid (Optically Active Substance)]	0.89 µM	0.023 µM	stronger inhibitory activities	0.026 µM				
O=C(O)[C@@H]1C[C@@H]1c1ccc(CCOc2ccc(-c3ccn[nH]3)nc2)cc1 [Example 70-10-1]				0.0064 µM	0.12 µM	0.16 µM	2.3 µM	3.3 µM
O=C(O)C1CC1c1cccc(CCOc2ccc(-c3ccn[nH]3)nc2)c1 (stereo not drawn) [Example 70-7]				0.016 µM	0.32 µM	0.05 µM	1.4 µM	2.9 µM
O=C(O)C12CC(CCCCCCOc3ccc(-c4ccn[nH]4)nc3)(C1)C2 [Example 1-53]	0.33 µM	0.061 µM	stronger inhibitory activities	0.014 µM				
O=C(O)C1CCc2ccc(COc3ccc(-c4ccn[nH]4)nc3)cc2O1 (stereo not drawn) [Example 1-70]	0.14 µM	0.062 µM	stronger inhibitory activities	0.037 µM				
O=C(O)C1(CCCCCCCCOc2ccc(-c3ccn[nH]3)nc2)CCOCC1 [Example 3-1, 4-[8-[[6-(1H-Pyrazol-5-yl)-3-pyridinyl]oxy]octyl]-4-oxanecarboxylic Acid]	0.024 µM	0.19 µM	stronger inhibitory activities	0.01 µM				
O=C(O)C1(CCCCCCCCOc2ccc(-c3ccn[nH]3)nc2)CS(=O)(=O)C1 [Example 73-1, 1,1-Dioxo-3-[8-[6-(1H-pyrazol-5-yl)pyridin-3-yl]oxyoctyl]thietane-3-carboxylic Acid]				0.0017 µM	0.012 µM	0.16 µM	2.3 µM	0.66 µM
O=C(O)C1COc2ccc(COc3ccc(-c4ccn[nH]4)nc3)cc2C1 (stereo not drawn) [Example 1-68]	0.64 µM	0.028 µM	stronger inhibitory activities	0.026 µM				
CCOC(=O)N1CCN(CCOc2ccc(-c3ccn[nH]3)cn2)CC1 [Compound B, reference compound]	36 µM	> 50 µM		15.6 µM				
O=C(O)[C@@H]1C[C@H]1c1cccc(CCOc2ccc(-c3ccn[nH]3)nc2)c1F [Example 74-5]				0.0091 µM	0.08 µM	0.088 µM	3 µM	5 µM
O=C(O)C1CC1c1cc(CCOc2ccc(-c3ccn[nH]3)nc2)ccc1F (stereo not drawn) [Example 74-2]				0.02 µM	0.13 µM	0.053 µM	0.28 µM	2.3 µM

From patent publication US11365192B2, “Pyridine compound substituted with azole” (TAISHO PHARMACEUTICAL CO., LTD., priority 2017, dated 2022)
